Measured values published in PubChem BioAssay AID1963956 (Xavier Lab, Infectious Disease and Microbiome Program, …, 2024).
Activity calls are given as the source filed them.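 The calls were made as follows: active = caspase-3 cutting of the mutant autophagy protein ATG16L1 lowered by over half at 20 µM; inactive = the rest.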

Target: Autophagy-related protein 16-1 (Homo sapiens) (UniProt Q676U5)
Experiment: blockers of caspase-3 processing of ATG16L1 variant – biochemical, AlphaLISA, recombinant protein, with or without FKBP12, dose response (AID 1963956)
Conditions: recombinant ATG16L1 T300A + caspase-3, AlphaLISA

Autophagy-related protein 16-1 (Homo sapiens), sequence (Q676U5 whole entry T300A, looked up): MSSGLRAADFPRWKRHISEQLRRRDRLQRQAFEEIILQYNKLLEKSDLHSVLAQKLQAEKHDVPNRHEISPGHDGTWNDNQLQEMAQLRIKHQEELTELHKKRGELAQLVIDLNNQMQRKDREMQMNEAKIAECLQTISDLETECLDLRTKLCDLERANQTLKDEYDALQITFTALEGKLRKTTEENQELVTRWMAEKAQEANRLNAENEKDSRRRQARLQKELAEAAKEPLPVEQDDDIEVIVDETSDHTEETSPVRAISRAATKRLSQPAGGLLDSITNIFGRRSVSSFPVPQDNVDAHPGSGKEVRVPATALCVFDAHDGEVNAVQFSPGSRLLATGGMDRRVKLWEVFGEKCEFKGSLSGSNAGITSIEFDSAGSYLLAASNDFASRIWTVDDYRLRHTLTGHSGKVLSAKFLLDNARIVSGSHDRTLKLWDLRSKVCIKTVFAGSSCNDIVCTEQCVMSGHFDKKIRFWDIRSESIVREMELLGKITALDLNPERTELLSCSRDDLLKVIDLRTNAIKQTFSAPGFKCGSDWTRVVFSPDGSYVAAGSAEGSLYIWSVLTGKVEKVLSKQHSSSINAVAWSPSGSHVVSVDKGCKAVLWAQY

Row | outcome (without FKBP12) | Structure (SMILES) | other results
1 | inactive | CCC(C)(C)C(=O)C(=O)N1CCCC[C@H]1C(=O)N[C@H](CCc1ccc(OC)cc1)C(=O)N1[C@@H]2CC[C@H]1CC(Nc1nc(NCCc3ccccc3)nc(N3CCn4ncnc4C3)n1)C2 (some centres not stated) | outcome (with FKBP12): inactive
2 | inactive | CC(=O)N1[C@@H]2CC[C@H]1CC(Nc1nc(NCCc3sc(N)nc3C)nc(N3CCn4ncnc4C3)n1)C2 (some centres not stated) | outcome (with FKBP12): inactive
3 | inactive | CCC(C)(C)C(=O)C(=O)N1CCCC[C@H]1C(=O)N[C@H](CCc1ccc(OC)cc1)C(=O)N1[C@@H]2CC[C@H]1CC(Nc1nc(NCCc3sc(N)nc3C)nc(N(C)Cc3nnc4n3CCC4)n1)C2 (some centres not stated) | –
4 | inactive | CCC(C)(C)C(=O)C(=O)N1CCCC[C@H]1C(=O)N[C@H](CCc1ccc(OC)cc1)C(=O)N1[C@@H]2CC[C@H]1CC(Nc1nc(NCCc3sc(N)nc3C)nc(NCc3ccnc(CO)c3)n1)C2 (some centres not stated) | –

The next lines start with the molecule.

Row | Structure (SMILES) | outcome (without FKBP12) | other results
5 | CCC(C)(C)C(=O)C(=O)N1CCCC[C@H]1C(=O)N[C@H](CCc1ccc(OC)cc1)C(=O)N1[C@@H]2CC[C@H]1CC(Nc1nc(NCCc3sc(N)nc3C)nc(N3CCn4ncnc4C3)n1)C2 (some centres not stated) | – | EC50 (with FKBP12): 10.8 µM; EC50 (without FKBP12): 12.1 µM
6 | CCC(C)(C)C(=O)C(=O)N1CCCC[C@H]1C(=O)N[C@H](CCc1ccc(OC)cc1)C(=O)N1CC(Nc2nc(NCCc3sc(N)nc3C)nc(NCCn3cnc4ccccc43)n2)C1 | inactive | –
7 | CCC(C)(C)C(=O)C(=O)N1CCCC[C@H]1C(=O)N[C@H](CCc1ccc(OC)cc1)C(=O)N1CC[C@H](Nc2nc(NCCc3sc(N)nc3C)nc(N(C)Cc3nnc4n3CCC4)n2)C1 | inactive | –
8 | CCC(C)(C)C(=O)C(=O)N1CCCC[C@H]1C(=O)N[C@H](CCc1ccc(OC)cc1)C(=O)N1[C@@H]2CC[C@H]1CC(Nc1nc(NCCc3sc(N)nc3C)nc(NCCn3cnc4ccccc43)n1)C2 (some centres not stated) | inactive | –
9 | CCC(C)(C)C(=O)C(=O)N1CCCC[C@H]1C(=O)N[C@H](CCc1ccc(OC)cc1)C(=O)N1[C@@H]2CC[C@H]1CC(NC(C)=O)C2 (some centres not stated) | inactive | –
